Measurements reported in patent publication US20240374761A1, “ANIMAL MODEL HAVING HOMOLOGOUS RECOMBINATION OF MOUSE PTH1 RECEPTOR” (RADIUS PHARMACEUTICALS, INC., priority 2021, published 2024).
“Also recorded” adds a separate entry of the source. Read-outs that look alike come from different tables or passages of the source.

What was measured:
[1] = target: T1, endogenous rodent PTH receptor (WT C57BL/6 mice) (Mus musculus, UniProt P41593); assay: Blood ionized calcium (Ca++) response to PTH ligand analog injection in wild-type mice; type: in vivo; conditions: 40 nmol/kg subcutaneous
T1 construct: WT mice expressing the endogenous rodent PTH receptor; endogenous in cells; host or cells: wild-type C57BL/6(n) mice, in vivo (bone and kidney)
T1 sequence (P41593 27-591): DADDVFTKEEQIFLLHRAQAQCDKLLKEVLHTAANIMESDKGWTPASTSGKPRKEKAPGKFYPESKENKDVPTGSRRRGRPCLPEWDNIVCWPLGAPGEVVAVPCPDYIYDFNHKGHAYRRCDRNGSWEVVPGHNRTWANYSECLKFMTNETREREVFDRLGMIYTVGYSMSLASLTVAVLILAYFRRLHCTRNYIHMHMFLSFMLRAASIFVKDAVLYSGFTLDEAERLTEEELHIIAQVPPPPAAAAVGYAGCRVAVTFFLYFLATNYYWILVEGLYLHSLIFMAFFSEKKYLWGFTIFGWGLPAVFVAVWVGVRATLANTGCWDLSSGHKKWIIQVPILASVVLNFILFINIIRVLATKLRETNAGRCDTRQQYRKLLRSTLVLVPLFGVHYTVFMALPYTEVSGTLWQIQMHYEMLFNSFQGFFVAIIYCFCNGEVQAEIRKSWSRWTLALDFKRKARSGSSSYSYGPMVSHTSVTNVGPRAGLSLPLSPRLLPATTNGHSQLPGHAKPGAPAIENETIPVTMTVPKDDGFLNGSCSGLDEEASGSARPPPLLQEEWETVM
Experimental: (§1) The utility of the hPTH1R-KI mice of the present disclosure as a model for predicting the behavior of different PTH and PTHrP analog peptides was evaluated. Ligand-induced PTH1R signaling in bone and kidney results in a rapid increase in blood levels of free ionized calcium (Ca^++) and a decrease in blood levels of inorganic phosphorus (Pi); changes that occur through the promotion of the release of Ca and Pi from bone mineral stores, the reabsorption of Ca from the renal filtrate, and a suppression of Pi reabsorption in the kidney. Thus, blood Ca^++ and Pi levels were measured in WT and hPTH1R-KI mice before and at times after injection of PTH ligands.
Blood ionized calcium (Ca^++) levels were measured in homozygous mice comprising a heterologous polynucleotide comprising human Parathyroid Hormone 1 Receptor (hPTH1R) exons 4 to 16 (hereinafter “hPTH1R-KI” mice), and WT C57BL/6(n) mice, at age 10 weeks. Mice were treated in accordance with the ethical guidelines adopted by the Massachusetts General Hospital (MGH). […]
Blood was collected from a ˜2 mm tail vein incision and placed into heparinized capillary tube (Multi-cap-S, Siemens Healthcare Diagnostics Inc, Catalog No. 05656514) just prior to injection (t=0), and at 1, 2, 4 and 8 hours after injection, then immediately analyzed for pH-adjusted ionized calcium using a Siemens RapidLab 348 Ca^2+/pH analyzer. […]

[2] = target: T2, human PTH1R (hPTH1R-KI mice) (Homo sapiens, UniProt Q03431); assay: Blood ionized calcium (Ca++) response to PTH ligand analog injection in hPTH1R-KI mice; type: in vivo, mouse; conditions: 40 nmol/kg subcutaneous
T2 construct: Met593 (followed by a stop codon); expressed in transfected cells; host or cells: homozygous hPTH1R-KI C57BL/6 mice (knock-in at the mouse Pth1r locus), in vivo
T2 sequence (Q03431 23-593 E90Y/S91D/E92V/E93P/K95Y/E96A): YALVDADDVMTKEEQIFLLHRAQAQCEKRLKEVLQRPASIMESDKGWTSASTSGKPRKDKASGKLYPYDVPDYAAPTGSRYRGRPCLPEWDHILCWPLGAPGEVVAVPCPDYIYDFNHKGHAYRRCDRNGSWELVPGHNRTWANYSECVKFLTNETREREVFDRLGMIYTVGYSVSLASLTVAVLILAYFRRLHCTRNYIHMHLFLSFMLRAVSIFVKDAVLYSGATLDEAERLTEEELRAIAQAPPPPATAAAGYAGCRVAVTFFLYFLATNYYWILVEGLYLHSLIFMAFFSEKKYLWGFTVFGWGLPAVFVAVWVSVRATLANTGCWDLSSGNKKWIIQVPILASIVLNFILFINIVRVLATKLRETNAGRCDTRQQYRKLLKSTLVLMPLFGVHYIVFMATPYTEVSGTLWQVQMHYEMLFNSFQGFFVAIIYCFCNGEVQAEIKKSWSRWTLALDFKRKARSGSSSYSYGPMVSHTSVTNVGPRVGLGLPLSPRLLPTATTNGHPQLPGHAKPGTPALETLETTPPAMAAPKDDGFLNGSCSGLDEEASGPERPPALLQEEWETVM
Experimental: as §1
Blood ionized calcium (Ca^++) levels were measured in homozygous mice comprising a heterologous polynucleotide comprising human Parathyroid Hormone 1 Receptor (hPTH1R) exons 4 to 16 (hereinafter “hPTH1R-KI” mice), and WT C57BL/6(n) mice, at age 10 weeks. Mice were treated in accordance with the ethical guidelines adopted by the Massachusetts General Hospital (MGH). Mice were injected subcutaneously in the interscapular region with vehicle (5 mM citrate, 150 mM NaCl, 0.05% Tween80, pH 5.0), or vehicle containing either PTH(1-34), PTHrP(1-36) or abaloparatide, each peptide at a dose of 40 nmol/kg of body weight, with five animals per group.
Blood was collected from a ˜2 mm tail vein incision and placed into heparinized capillary tube (Multi-cap-S, Siemens Healthcare Diagnostics Inc, Catalog No. 05656514) just prior to injection (t=0), and at 1, 2, 4 and 8 hours after injection, then immediately analyzed for pH-adjusted ionized calcium using a Siemens RapidLab 348 Ca^2+/pH analyzer.
Data was processed using Microsoft Excel 2016 and GraphPad Prism 8.0. Data is represented as means+/−standard error, and statistical significance was assessed using a two-tailed Students t-test. Two replicate experiments were performed on separated days for each set of 20 hPTH1R-KI and 20 WT control mice n hPTH1R-KI mice. The replicate experiments gave essentially the same result for the two groups, and the data (n=10) were combined as means+SEM.

[3] = target: T2, human PTH1R (hPTH1R-KI mice); assay: Serum inorganic phosphorus (Pi) response to PTH ligand analog injection in hPTH1R-KI mice; type: in vivo; conditions: 40 nmol/kg
Experimental: To assess changes to blood Pi in response to PTH ligand injection, 10-week-old hPTH1R-KI and wild-type mice were injected with PTH(1-34), PTHrP(1-36), or Abaloparatide (see Example 13) each at a dose of 40 nmol/kg (n=5 mice per group). Tail vein blood was collected into a 1 mL microcentrifuge tubes containing 3 μL 0.5 mM EDTA on ice at t=0, 1, 2, 4, and 8 hours post-injection. The blood samples were centrifuged at 8,000 rpm at 4° C. for 15 minutes, and plasma supernatant was collected and frozen at −80° C. Plasma phosphate was analyzed using a colorimetric phosphate assay kit (AbCam. UK, Catalog No. ab65622).

PTH1R (WT mice) = target: T3, PTH1R (WT mice) (Mus musculus, UniProt P41593); assay: Antagonist response: blood calcium after co-injection with PTH(1-34) in WT mice; type: in vivo; conditions: 3-month-old WT mice, 40 nmol/kg subcutaneous
T3 construct: WT mice expressing the endogenous rodent PTH receptor; endogenous in cells; host or cells: wild-type C57BL/6(n) mice, in vivo (bone and kidney)
T3 sequence (P41593 27-591): T1 sequence (P41593 27-591)
Experimental: (§2) Briefly, to assess the responses to antagonist PTH analogs, 3-month-old WT or hPTH1R-KI mice were injected subcutaneously with either (1) vehicle, (2) vehicle containing PTH(1-34) alone at 40 nmol/kg, or (3) PTH(1-34) at 40 nmol/kg together with an antagonist peptide, LA-PTH(7-36) or [Leu^11,dTrp^12,Trp^23,Tyr^36]-PTHrP(7-36), each antagonist at a dose of 500 nmol/kg (n=5 mice per group). Blood was collected from the tail vein and calcium was measured as described above in Example 13.

[4] = target: T2, human PTH1R (hPTH1R-KI mice); assay: Antagonist response: blood calcium after co-injection with PTH(1-34) in hPTH1R-KI mice; type: in vivo, mouse; conditions: 3-month-old hPTH1R-KI mice, 40 nmol/kg subcutaneous
Experimental: as §2

[5] = cited from earlier work
[6] = target: T4, RG conformation of the PTH1R (Homo sapiens, UniProt Q03431); conditions: versus R0 conformation; compared with teriparatide / PTH and PTHrP ligands; cited from earlier work
T4 sequence (Q03431 27-593): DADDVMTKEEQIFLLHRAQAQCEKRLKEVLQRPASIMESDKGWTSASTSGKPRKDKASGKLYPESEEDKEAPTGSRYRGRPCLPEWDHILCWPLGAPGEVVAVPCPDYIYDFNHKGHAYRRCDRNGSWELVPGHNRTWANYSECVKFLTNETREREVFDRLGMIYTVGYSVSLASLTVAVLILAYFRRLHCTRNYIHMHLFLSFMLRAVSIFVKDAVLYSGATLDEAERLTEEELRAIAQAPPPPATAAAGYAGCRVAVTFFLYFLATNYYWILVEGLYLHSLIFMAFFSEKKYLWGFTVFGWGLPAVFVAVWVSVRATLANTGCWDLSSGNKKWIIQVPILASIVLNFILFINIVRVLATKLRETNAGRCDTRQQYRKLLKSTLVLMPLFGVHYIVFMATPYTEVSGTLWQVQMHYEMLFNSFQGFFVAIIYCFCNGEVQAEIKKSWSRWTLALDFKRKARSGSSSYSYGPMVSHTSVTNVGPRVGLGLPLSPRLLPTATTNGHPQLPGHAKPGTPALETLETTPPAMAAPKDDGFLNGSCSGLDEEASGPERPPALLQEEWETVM

[7] = tested on: ovariectomy-induced osteopenic rats; conditions: cited from earlier work
[8] = tested on: ovariectomy-induced osteopenic monkeys; conditions: cited from earlier work

| Compound | difference in calcemic response duration compared to the other two ligands [1] | duration of calcemic response [2] | blood Ca++ levels at 4 hours [2] | phosphaturic response profile [3] | serum Pi levels at 2 hours post-injection [3] | blood calcium levels after PTH(1-34) alone (PTH1R (WT mice)) | blood calcium levels after PTH(1-34) alone [4] | rate of clearance from the blood ([5]; previous analyses) | binding selectivity for the RG conformation of PTH1R [6] | reversal of bone loss [7] | reversal of bone loss [8] | rate of clearance from the blood ([5]; in vivo) |
| --- | --- | --- | --- | --- | --- | --- | --- | --- | --- | --- | --- | --- |
| CC[C@H](C)[C@H](NC(=O)[C@H](CCC(=O)O)NC(=O)[C@H](CO)NC(=O)[C@@H](NC(=O)[C@@H](N)CO)C(C)C)C(=O)N[C@@H](CCC(N)=O)C(=O)N[C@@H](CC(C)C)C(=O)N[C@@H](CCSC)C(=O)N[C@@H](Cc1cnc[nH]1)C(=O)N[C@@H](CC(N)=O)C(=O)N[C@@H](CC(C)C)C(=O)NCC(=O)N[C@@H](CCCCN)C(=O)N[C@@H](Cc1cnc[nH]1)C(=O)N[C@@H](CC(C)C)C(=O)N[C@@H](CC(N)=O)C(=O)N[C@@H](CO)C(=O)N[C@@H](CCSC)C(=O)N[C@@H](CCC(=O)O)C(=O)N[C@@H](CCCN=C(N)N)C(=O)N[C@H](C(=O)N[C@@H](CCC(=O)O)C(=O)N[C@@H](Cc1c[nH]c2ccccc12)C(=O)N[C@@H](CC(C)C)C(=O)N[C@@H](CCCN=C(N)N)C(=O)N[C@@H](CCCCN)C(=O)N[C@@H](CCCCN)C(=O)N[C@@H](CC(C)C)C(=O)N[C@@H](CCC(N)=O)C(=O)N[C@@H](CC(=O)O)C(=O)N[C@H](C(=O)N[C@@H](Cc1cnc[nH]1)C(=O)N[C@@H](CC(N)=O)C(=O)N[C@@H](Cc1ccccc1)C(=O)O)C(C)C)C(C)C [PTH(1-34)] | not seen | more prolonged calcemic response | remained elevated | more prolonged activity in vivo | remained low | expected rise in blood calcium levels | expected rise in blood calcium levels | comparable rates of clearance | – | – | – | – |
| PTHrP(1-36) | – | more a transient functional response | returned to baseline | – | – | – | – | – | – | – | – | – |
| abaloparatide: synthetic 34-amino acid PTHrP(1-34)-based analogue, AVSEHQLLHDKGKSIQDLRRRELLEKLLXKLHTA, X is Aib (SEQ ID NO: 22) | – | more a transient functional response | returned to baseline | – | returned to near-vehicle control levels | – | – | – | more selectively than teriparatide; also recorded: greater selectivity | complete reversal of bone loss | complete reversal of bone loss | comparable rates of clearance |
